Measured values published in patent US20110040086A1, “Novel Beta-Lactam Antibiotics, Methods for Their Production, and Their Use” (DRITTE PATENTPORTFOLIO BETEILIGUNGSGESELLSCHAFT MB, priority 2007, published 2011).

Key:
S. aureus 36881 = experiment: agar diffusion test (Test System II, multi-resistant germs); assay type: cell-based, Staphylococcus aureus; set-up: key: r = resistant (no detectable zone of inhibition)
Method: (§1) The test substances are deposited in stepped quantities (10 μg, 50 μg, 100 μg) onto active ingredient carriers (sensi-discs). For this purpose, the test substances are dissolved in methanol or A. dest. according to their solubility. Each inoculated plate is fitted with 3 test sheets.
(§2) Test System II (Effect Against Multi-Resistant Germs)
(§3) For this purpose, bacteria is cultivated on Müller-Hinton-Agar II plates.
(§4) With 1-1.5 ml physiological saline solution, a bacteria suspension of McFarland 0.5 (corresponds to a bacteria density of 150×10^6 germs) is produced. Then, with a sterile glass rod, a small drop of bacteria suspension is placed on the Müller-Hinton-Agar plate and coated in three layers (vertical, horizontal, and transverse). Thereafter, the sensi-discs with the novel semi-synthetic test substances are placed on top. The fitted plates are incubated for 18-20 hours at 37° C. After incubation, the diameters of the zones of inhibition are read as a measure for the antimicrobial activity of the novel semi-synthetic test substances.

[1] = test system: S. aureus North Germany strain; experiment: as above; assay type: cell-based, Staphylococcus aureus; set-up: key: r = resistant (no detectable zone of inhibition)
Method: as §1, §2, §3, §4

S. aureus 520 = experiment: as above; assay type: cell-based, Staphylococcus aureus; set-up: key: r = resistant (no detectable zone of inhibition)
Method: as §1, §2, §3, §4

[2] = test system: Staphylococcus aureus ATCC 6538; experiment: mouse infected with Staphylococcus aureus infection model (survival); assay type: in vivo, BALB/c mice; settings: 2 × 1.0 mg (50 mg/kg) i.p.
Method: Method for Effectiveness In Vivo with the Mouse Infected with Staphylococcus aureus Model
On Day 0, at least 3 BALB/c mice per test substance (Table 8) or controls are pretreated with cyclophosphamide (250 mg/kg) in 250 μl PBS inta peritoneal (i.p.).
On Day 2, the animals again received 100 mg/kg i.p.
On Day 2, a colony of the test germ is transferred from a growing agar plate (Müller-Hinton-Agar, Beckton Dickinson) into a flask with 10 ml CASO broth (CASO-B., Soyabean peptone-Casein peptone broth, SIFIN, 30 g/l) and is cultivated overnight at 37° C. and a shaking frequency of 250 rpm.
On Day 3, the pre-culture (Vk) is diluted 1:50 with CASO-B and further cultivated ca. 2 hours until an extinction in the medium of 0.6 at a wavelength of 550 nm is reached. Then, it is grown 1× with PBS at room temperature and set again to an extinction of 0.6.
At least 3 animals for a test substance or controls are infected with 10 μl/g body weight grown germs of a bacteria suspension with the extinction 0.6 (ca. 10^10-10^12 CFU, Colony forming units) i.p.
After 30 minutes, antibiotic solution is injected into the mice in a volume of 200 μl PBS with 3% DMSO i.p. 6 hours later, the second antibiotic injection is performed at the same concentration. […]

S. epidermidis 847 = experiment: agar diffusion test (Test System II, multi-resistant germs); assay type: cell-based, Staphylococcus epidermidis; set-up: key: r = resistant (no detectable zone of inhibition)
Method: as §1, §2, §3, §4

[3] = test system: Enterococcus faecalis 769; experiment: as above; assay type: cell-based; set-up: key: r = resistant (no detectable zone of inhibition)
Method: as §1, §2, §3, §4

[4] = test system: Staphylococcus aureus 315; experiment: as above; assay type: cell-based; set-up: key: r = resistant (no detectable zone of inhibition)
Method: as §1, §2, §3, §4

S. aureus ATCC 6538 = experiment: as above; assay type: cell-based, Staphylococcus aureus
Method: as §1, §2, §3, §4

S. aureus 38418 = experiment: as above; assay type: cell-based, Staphylococcus aureus
Method: as §1, §2, §3, §4

S. epidermidis 125 = experiment: as above; assay type: cell-based, Staphylococcus epidermidis
Method: as §1, §2, §3, §4

[5] = logP value by HPLC according to Donovan et al.; settings: for chromatographic logP: HPLC with methanol/0.1% phosphoric acid gradient, pH 2
Method: • Operating temperature 18-24° C. • Flow 1.5 mL/min • Linear gradient (methanol/0.1% phosphoric acid pH 2) from 10% to 100% methanol in 9.4 min, equilibrium time between 2 runs 6 min
ca. 0.5 mg of analyte is added to 0.5 ml of a standard solution (440 mg methyl phenyl sulfonate and 380 μl toluene in 150 mL methanol). 2 μl of this sample solution is injected.
Because the distribution coefficients of the two standards running in each test are known, the distribution coefficient of the analytes can be determined from the relationships of the analyte/standard retention times.

chromatographic logP [5]	Compound	Diameter of zone of inhibition (S. aureus 36881; Quantity n 0.019)	Diameter of zone of inhibition (S. aureus 36881; Quantity n 0.19) [mm]	Diameter of zone of inhibition ([1]; Quantity n 0.019)	Diameter of zone of inhibition ([1]; Quantity n 0.19) [mm]	Diameter of zone of inhibition (S. aureus 520; Quantity n [mol] 0.019)	Diameter of zone of inhibition (S. aureus 520; Quantity n [mol] 0.19)	Survival/tested mice n/n [2]	Diameter of zone of inhibition (S. epidermidis 847; Quantity n [mol] 0.019)	Diameter of zone of inhibition (S. epidermidis 847; Quantity n [mol] 0.19) [mm]	Diameter of zone of inhibition ([3]; Quantity n 0.019)	Diameter of zone of inhibition ([3]; Quantity n 0.19)	Diameter of zone of inhibition ([4]; Quantity n 0.019)	Diameter of zone of inhibition ([4]; Quantity n 0.19) [mm]	Diameter of zone of inhibition (S. aureus ATCC 6538; Quantity n 0.019) [mm]	Diameter of zone of inhibition (S. aureus ATCC 6538; Quantity n 0.19) [mm]	Diameter of zone of inhibition (S. aureus 38418; Quantity n [mol] 0.019) [mm]	Diameter of zone of inhibition (S. aureus 38418; Quantity n [mol] 0.19) [mm]	Diameter of zone of inhibition (S. epidermidis 125; Quantity n 0.019) [mm]	Diameter of zone of inhibition (S. epidermidis 125; Quantity n 0.19) [mm]	further results
–	3-chlorine-7-[2-(2-carbamoyl-3,6-dioxocyclohexa-1,4-dienylamino)-2-phenyl-acetylamino]-8-oxo-5-aza-bicyclo[4.2.0]oct-3-ene-4-carboxylic acid [1n]	r	8	r	14	r	8 mm	3/3	r	20	r	r	r	12	22	32	14	30	14	26	Diameter of zone of inhibition (S. aureus 36881; Quantity n 0.096): r; Diameter of zone of inhibition ([1]; Quantity n 0.096): r; Diameter of zone of inhibition (S. aureus 520; Quantity n [mol] 0.096): r; Diameter of zone of inhibition (S. epidermidis 847; Quantity n [mol] 0.096): 16 mm; Diameter of zone of inhibition ([3]; Quantity n 0.096): r; Diameter of zone of inhibition ([4]; Quantity n 0.096): r; Diameter of zone of inhibition (S. aureus ATCC 6538; Quantity n 0.096): 28 mm; Diameter of zone of inhibition (S. aureus 38418; Quantity n [mol] 0.096): 26 mm; Diameter of zone of inhibition (S. epidermidis 125; Quantity n 0.096): 22 mm
–	3-chlorine-7-[2-(2-methoxycarbonyl-3,6-dioxocyclohexa-1,4-dienylamino)-2-phenyl-acetylamino]-8-oxo-5-aza-bicyclo[4.2.0]oct-3-ene-4-carboxylic acid [1o]	r	12	r	12	r	r	2/3	r	18	r	r	r	10	22	30	14	28	14	24	Diameter of zone of inhibition (S. aureus 36881; Quantity n 0.094): r; Diameter of zone of inhibition ([1]; Quantity n 0.094): r; Diameter of zone of inhibition (S. aureus 520; Quantity n [mol] 0.094): r; Diameter of zone of inhibition (S. epidermidis 847; Quantity n [mol] 0.094): 14 mm; Diameter of zone of inhibition ([3]; Quantity n 0.094): r; Diameter of zone of inhibition ([4]; Quantity n 0.094): r; Diameter of zone of inhibition (S. aureus ATCC 6538; Quantity n 0.094): 28 mm; Diameter of zone of inhibition (S. aureus 38418; Quantity n [mol] 0.094): 14 mm; Diameter of zone of inhibition (S. epidermidis 125; Quantity n 0.094): 20 mm
–	CCOC(=O)C1=C(NC(C(=O)NC2C(=O)C3CC(Cl)=C(C(=O)O)NC32)c2ccccc2)C(=O)C=CC1=O (stereo not shown) [1p, 3-chlorine-7-[2-(2-ethoxycarbonyl-3,6-dioxocyclohexa-1,4-dienylamino)-2-phenyl-acetylamino]-8-oxo-5-azabicyclo[4.2.0]oct-3-ene-4-carboxylic acid]	r	20	r	12	r	8 mm	2/3	r	20	r	r	r	10	22	32	18	>30	16	28	Diameter of zone of inhibition (S. aureus 36881; Quantity n 0.094): 12 mm; Diameter of zone of inhibition ([1]; Quantity n 0.094): r; Diameter of zone of inhibition (S. aureus 520; Quantity n [mol] 0.094): r; Diameter of zone of inhibition (S. epidermidis 847; Quantity n [mol] 0.094): 16 mm; Diameter of zone of inhibition ([3]; Quantity n 0.094): r; Diameter of zone of inhibition ([4]; Quantity n 0.094): r; Diameter of zone of inhibition (S. aureus ATCC 6538; Quantity n 0.094): 30 mm; Diameter of zone of inhibition (S. aureus 38418; Quantity n [mol] 0.094): 28 mm; Diameter of zone of inhibition (S. epidermidis 125; Quantity n 0.094): 26 mm
-1.21	O=C(NCCO)c1cc(O)ccc1O [2,5-dihydroxy-N-(2-hydroxyethyl)benzamide]	–	–	–	–	–	–	–	–	–	–	–	–	–	–	–	–	–	–	–	–
-0.4	NC(=O)c1cc(O)ccc1O [2,5-dihydroxybenzamide]	–	–	–	–	–	–	–	–	–	–	–	–	–	–	–	–	–	–	–	–
2.65	CCOC(=O)c1cc(O)ccc1O [2,5-dihydroxybenzoic acid ethylester]	–	–	–	–	–	–	–	–	–	–	–	–	–	–	–	–	–	–	–	–
–	N[C@@H](C(=O)N[C@@H]1C(=O)N2C(C(=O)O)=C(Cl)CC[C@H]12)c1ccccc1 [2d, Loracarbef, reference compound]	–	–	–	–	–	–	–	–	–	–	–	–	–	–	–	–	–	–	–	logP value ([5]; HPLC, methanol/0.1% phosphoric acid pH 2): −3.13
